Measurements published in patent US6596036B2, “Method for the production of a dye preparation based on madder root” (Coöperatie Rubia U.A., priority 2000, dated 2003).

Assays:
[1] = solubility in water (statement in Example 3); assay type: physicochemical; settings: stated to explain the reaction speed in the madder root extraction mixture
Protocol: After analysis of the reaction mixture it follows that within 60 minutes all LP is converted into LUC. After the reaction vessel is opened, LUC is converted into NOR, a step which takes 6 hours. When oxygen is present LUC can not be detected, which means that its conversion is much faster than in the present experimental situation. […] Therefore, it is in general difficult for the enzyme to oxidize the solid LUC to NOR. However, when the reaction is performed under oxygen LUC cannot crystalize, because it is immediately oxidized to NOR.

[2] = stated as known, no test described; cited from earlier work

Structure (SMILES): O=C1c2ccccc2C(=O)c2c1cc(O)c(CO)c2O [LUC, lucidin]
- solubility in water [1]: not soluble in water
- mutagenicity [2]: mutagenic

Structure (SMILES): O=Cc1c(O)cc2c(c1O)C(=O)c1ccccc1C2=O [NOR, nordamnacanthal]
- solubility in water [1]: insoluble in water
